The values below come from patent publication EP2910242B1, “DURABLE […] SEBACOYL DI[…]-PLGA CONTROLLED RELEASE FORMULATION” (Hu, Oliver Yaopu, priority 2012, dated 2014).

As usually defined, the solubility is the concentration that dissolves in the medium under given conditions. Higher therefore signals much dissolved substance. Usually logP stands for a log measure of how a compound divides between an organic and an aqueous phase. A high value points to higher lipophilicity.

Data set [1] is described as follows: drug saturated solubility in water.
A short description of data set [2]: oil-in-water coefficient (logP).
The conditions of data set [3]: subcutaneous injection of PLGA microspheres containing the drug; 50 mg/rabbit; cited from earlier work.

Structures are written as SMILES. Values after ≈ are worked out from the molar mass of the structure shown. Structures can show the parent of a compound that is named as a salt. Where two headings read alike, the source gives them in different places.

For `Oc1ccc2c3c1O[C@H]1[C@@H](O)CC[C@@]4(O)[C@@H](C2)N(CC2CCC2)CC[C@]314` [Nalbuphine HCl], the solubility in data set [1] (water) was above 25000 µg/mL.

Compound `CCCCCCC(=O)Oc1ccc2c3c1O[C@H]1[C@@H](O)CC[C@@]4(O)[C@@H](C2)N(CC2CCC2)CC[C@]314` [Nalbuphine enanthate] displayed a solubility in data set [1] of 3 µg/mL (≈ 6.39 µM). In data set [2], this compound registered a logP of 1.94.

As to `CC(C)(C)C(=O)Oc1ccc2c3c1O[C@H]1[C@@H](O)CC[C@@]4(O)[C@@H](C2)N(CC2CCC2)CC[C@]314` [Nalbuphine pivalate], in data set [3], the “time the effective serum concentration lasted” value is listed as 4 days. This compound yielded a solubility in data set [1] of 33.7 µg/mL (≈ 76.3 µM). The compound further showed a logP in data set [2] of 1.42.

`O=C(CCCCCCCCC(=O)Oc1ccc2c3c1O[C@H]1[C@@H](O)CC[C@@]4(O)[C@@H](C2)N(CC2CCC2)CC[C@]314)Oc1ccc2c3c1O[C@H]1[C@@H](O)CC[C@@]4(O)[C@@H](C2)N(CC2CCC2)CC[C@]314` [Sebacoyl dinalbuphine ester] gave a solubility in data set [1] below 0.25 µg/mL. The compound further came in with a logP in data set [2] of 3.15.

Regarding `CCC(=O)Oc1ccc2c3c1O[C@H]1[C@@H](O)CC[C@@]4(O)[C@@H](C2)N(CC2CCC2)CC[C@]314` [Nalbuphine propionate], the “time the effective serum concentration lasted” value in data set [3] is 4 days. For the same compound, in data set [1], the concentration in solution (solubility) came to 44.7 µg/mL (≈ 108 µM). The logP in data set [2] is 1.05.

`CCCCCCCCCC(=O)Oc1ccc2c3c1O[C@H]1[C@@H](O)CC[C@@]4(O)[C@@H](C2)N(CC2CCC2)CC[C@]314` [Nalbuphine decanoate]: in data set [3], the “time the effective serum concentration lasted” value was 4 days. This compound yielded a solubility in data set [1] of 0.67 µg/mL (≈ 1.31 µM). The logP in data set [2] is 3.3.
